Values of other authors as cited in patent US20240415846A1, “METHOD OF TREATING AMYOTROPHIC LATERAL SCLEROSIS AND DOSING REGIMEN FOR SAME” (Woolsey Pharmaceuticals, Inc., priority 2021, published 2024).

Details: 1-hydroxy (M3) metabolite formed in vivo; Shibuya 2001; cited from earlier work

Q: Which half-life does the source give for `O=S(=O)(c1cccc2c(O)nccc12)N1CCCNCC1` [M3] here?
A: The half-life was “about 8 hours”.
